SMILES strings stand for the structures. Values joined by “and” are separate entries in the source; they are usually repeats but may differ in a detail not shown here. Equal values may be shown once. Inconclusive results are not listed.

Results on 15 molecules are retold here after PubChem BioAssay AID228 (DTP/NCI, 2004).

The test system of this experiment is BDF1 mice, Friend leukemia sc, tumor weight T/C. The experiment is described as follows: NCI In Vivo Anticancer Drug Screen. Data for tumor model Friend Virus Leukemia (Solid) (subcutaneous) in B6D2F1 (BDF1) mice. The conditions noted are these: endpoint: mean tumor weight, higher = larger tumour. How it is done: The antitumor activity of compounds was measured in mice bearing transplantable tumors. Survival or tumor size were measured and the results are expressed as the measurement made in the treated group (T) divided by the measurement made in the vehicle treated control group (C). The tumor model used in this assay is Friend Virus Leukemia (Solid) (subcutaneous) in B6D2F1 (BDF1) mice

[1] abbreviates: dose: 89.0 mg/kg/injection, schedule: Q01DX011 (ip), vehicle: carboxymethylcellulose (CMC).
Where [2] appears, read: dose: 125.0 mg/kg/injection, schedule: Q01DX011 (ip), vehicle: carboxymethylcellulose (CMC).
[3] abbreviates: dose: 500.0 mg/kg/injection, schedule: Q01DX011 (ip), vehicle: carboxymethylcellulose (CMC).
Where [4] appears, read: dose: 0.75 mg/kg/injection, schedule: Q01DX011 (ip), vehicle: saline.
[5] abbreviates: dose: 1.5 mg/kg/injection, schedule: Q01DX011 (ip), vehicle: saline.
Setting [6] is: dose: 250.0 mg/kg/injection, schedule: Q01DX011 (ip), vehicle: carboxymethylcellulose (CMC).

Regarding `Nc1nc2ncc(CNc3ccc(C(=O)NC(CCC(=O)O)C(=O)O)cc3)nc2c(=O)[nH]1` (centres undefined), the T/C by setting is: (dose: 7.0 mg/kg/injection, schedule: Q01DX011 (ip), vehicle: carboxymethylcellulose (CMC)) 56 % of control; (dose: 14.0 mg/kg/injection, schedule: Q01DX011 (ip), vehicle: carboxymethylcellulose (CMC)) 105 % of control; (dose: 28.0 mg/kg/injection, schedule: Q01DX011 (ip), vehicle: carboxymethylcellulose (CMC)) 79 % of control; (dose: 56.0 mg/kg/injection, schedule: Q01DX011 (ip), vehicle: carboxymethylcellulose (CMC)) 70 % of control.
In the case of `CC1NC(=O)NC1CCCCCC(=O)O` (centres undefined), the T/C under setting [1] was 169 % of control and the T/C (dose: 178.0 mg/kg/injection, schedule: Q01DX011 (ip), vehicle: carboxymethylcellulose (CMC)) is 119 % of control.
For `O=NN1CCN(N=O)CC1`, the T/C (dose: 8.3 mg/kg/injection, schedule: Q01DX011 (ip), vehicle: carboxymethylcellulose (CMC)) is 94 % of control; the T/C (dose: 16.7 mg/kg/injection, schedule: Q01DX011 (ip), vehicle: carboxymethylcellulose (CMC)) was 120 % of control; the T/C (dose: 23.5 mg/kg/injection, schedule: Q01DX011 (ip), vehicle: carboxymethylcellulose (CMC)) was 95 % of control; the T/C (dose: 26.0 mg/kg/injection, schedule: Q01DX011 (ip), vehicle: carboxymethylcellulose (CMC)) is 85 % of control.
With `C[C@]12CCC(=O)C=C1CC[C@@H]1[C@@H]2[C@@H](O)C[C@@]2(C)[C@H]1CC[C@]2(O)C(=O)COC(=O)c1ccc([N+](=O)[O-])cc1Cl`, the T/C is, setting by setting: (dose: 50.0 mg/kg/injection, schedule: Q01DX011 (sc), vehicle: steriod suspending solution) 69 % of control; (dose: 100.0 mg/kg/injection, schedule: Q01DX011 (sc), vehicle: steriod suspending solution) 58 % of control; (dose: 200.0 mg/kg/injection, schedule: Q01DX011 (sc), vehicle: steriod suspending solution) 55 % of control; (dose: 400.0 mg/kg/injection, schedule: Q01DX011 (sc), vehicle: steriod suspending solution) 35 % of control.
As for `O=C(Nc1ccc(C2=NCCN2)cc1)c1ccc(C(=O)Nc2ccc(C3=NCCN3)cc2)c(NC(=O)c2ccc(C(=O)Nc3cc(C(=O)Nc4ccc(C5=NCCN5)cc4)ccc3C(=O)Nc3ccc(C4=NCCN4)cc3)cc2)c1`, the T/C by setting is: under setting [2], 161 % of control; under setting [3], 115 % of control.
For the molecule `CN(Cc1cnc2nc(N)nc(N)c2n1)c1ccc(C(=O)N[C@@H](CCC(=O)O)C(=O)O)cc1`, the T/C runs as follows: (dose: 0.37 mg/kg/injection, schedule: Q01DX011 (ip), vehicle: saline) 68 % of control; (dose: 0.5 mg/kg/injection, schedule: Q01DX011 (ip), vehicle: carboxymethylcellulose (CMC)) 44 % of control; under setting [4], 91 % of control; (dose: 0.8 mg/kg/injection, schedule: Q01DX011 (ip), vehicle: carboxymethylcellulose (CMC)) 71 % of control and 88 % of control; (dose: 1.4 mg/kg/injection, schedule: Q01DX011 (ip), vehicle: carboxymethylcellulose (CMC)) 36 % of control; (dose: 1.5 mg/kg/injection, schedule: Q01DX011 (ip), vehicle: carboxymethylcellulose (CMC)) 16 % of control. Moreover, under setting [5], the T/C was 49 % of control.
On to `O=c1c[n+](-c2ccccc2)[nH]o1`, for which the T/C was 89 % of control (dose: 22.5 mg/kg/injection, schedule: Q01DX011 (ip), vehicle: carboxymethylcellulose (CMC)); 76 % of control (dose: 45.0 mg/kg/injection, schedule: Q01DX011 (ip), vehicle: carboxymethylcellulose (CMC)); 74 % of control (dose: 90.0 mg/kg/injection, schedule: Q01DX011 (ip), vehicle: carboxymethylcellulose (CMC)); 78 % of control (dose: 180.0 mg/kg/injection, schedule: Q01DX011 (ip), vehicle: carboxymethylcellulose (CMC)).
With `ClCCn1cnc2c(SCc3ccccc3Cl)ncnc21`, the T/C by setting is: (dose: 3.0 mg/kg/injection, schedule: Q01DX011 (ip), vehicle: carboxymethylcellulose (CMC)) 72 % of control; (dose: 6.0 mg/kg/injection, schedule: Q01DX011 (ip), vehicle: carboxymethylcellulose (CMC)) 81 % of control; (dose: 12.0 mg/kg/injection, schedule: Q01DX011 (ip), vehicle: carboxymethylcellulose (CMC)) 77 % of control; (dose: 25.0 mg/kg/injection, schedule: Q01DX011 (ip), vehicle: carboxymethylcellulose (CMC)) 36 % of control; (dose: 50.0 mg/kg/injection, schedule: Q01DX011 (ip), vehicle: carboxymethylcellulose (CMC)) 43 % of control; (dose: 100.0 mg/kg/injection, schedule: Q01DX011 (ip), vehicle: carboxymethylcellulose (CMC)) 43 % of control. Further, the T/C runs as follows: (dose: 200.0 mg/kg/injection, schedule: Q01DX011 (ip), vehicle: carboxymethylcellulose (CMC)) 10 % of control and 25 % of control; (dose: 400.0 mg/kg/injection, schedule: Q01DX011 (ip), vehicle: carboxymethylcellulose (CMC)) 16 % of control.
On to `Nc1nc2n[nH]nc2c(=O)[nH]1`, for which the T/C is 158 % of control (dose: 11.12 mg/kg/injection, schedule: Q01DX011 (ip), vehicle: carboxymethylcellulose (CMC)); 190 % of control (dose: 11.8 mg/kg/injection, schedule: Q01DX011 (ip), vehicle: other); 189 % of control (dose: 22.7 mg/kg/injection, schedule: Q01DX011 (ip), vehicle: other); 152 % of control (dose: 45.5 mg/kg/injection, schedule: Q01DX011 (ip), vehicle: other); 44 % of control under setting [1]; 123 % of control (dose: 89.0 mg/kg/injection, schedule: Q01DX011 (ip), vehicle: other).
Turning to `CC1CN1C(=O)c1cc(C(=O)N2CC2C)cc(C(=O)N2CC2C)c1` (centres undefined), the T/C is, setting by setting: (dose: 15.0 mg/kg/injection, schedule: Q01DX011 (ip), vehicle: carboxymethylcellulose (CMC)) 70 % of control; (dose: 30.0 mg/kg/injection, schedule: Q01DX011 (ip), vehicle: carboxymethylcellulose (CMC)) 151 % of control; (dose: 60.0 mg/kg/injection, schedule: Q01DX011 (ip), vehicle: carboxymethylcellulose (CMC)) 47 % of control.
Consider `NC(Cc1c[nH]c2ccc(N(CCCl)CCCl)cc12)C(=O)O` (centres undefined), for which the T/C by setting is: under setting [4], 37 % of control; (dose: 1.0 mg/kg/injection, schedule: Q01DX011 (ip), vehicle: carboxymethylcellulose (CMC)) 120 % of control; under setting [5], 47 % of control; (dose: 2.5 micrograms/kg/injection, schedule: Q01DX011 (ip), vehicle: carboxymethylcellulose (CMC)) 71 % of control; (dose: 5.0 micrograms/kg/injection, schedule: Q01DX011 (ip), vehicle: carboxymethylcellulose (CMC)) 61 % of control; (dose: 11.0 micrograms/kg/injection, schedule: Q01DX011 (ip), vehicle: carboxymethylcellulose (CMC)) 86 % of control. Also, the T/C by setting is: (dose: 22.0 micrograms/kg/injection, schedule: Q01DX011 (ip), vehicle: carboxymethylcellulose (CMC)) 90 % of control; (dose: 45.0 micrograms/kg/injection, schedule: Q01DX011 (ip), vehicle: carboxymethylcellulose (CMC)) 52 % of control; (dose: 90.0 micrograms/kg/injection, schedule: Q01DX011 (ip), vehicle: carboxymethylcellulose (CMC)) 34 % of control; (dose: 180.0 micrograms/kg/injection, schedule: Q01DX011 (ip), vehicle: carboxymethylcellulose (CMC)) 40 % of control; (dose: 370.0 micrograms/kg/injection, schedule: Q01DX011 (ip), vehicle: carboxymethylcellulose (CMC)) 39 % of control.
In the case of `CCN(CC)CCN1C(=O)c2cccc3cccc(c23)C1=O`, the T/C by setting is: (dose: 25.0 mg/kg/injection, schedule: Q01DX011 (ip), vehicle: saline) 106 % of control; (dose: 50.0 mg/kg/injection, schedule: Q01DX011 (ip), vehicle: saline) 72 % of control; (dose: 100.0 mg/kg/injection, schedule: Q01DX011 (ip), vehicle: saline) 85 % of control.
Turning to `CNC(C)=O`, the T/C runs as follows: under setting [6], 104 % of control; under setting [3], 99 % of control and 107 % of control; (dose: 1000.0 mg/kg/injection, schedule: Q01DX011 (ip), vehicle: carboxymethylcellulose (CMC)) 75 % of control and 76 % of control.
Regarding `Cn1c(=O)c2[nH]cnc2n(C)c1=O`, the T/C reads like this: (dose: 14.5 mg/kg/injection, schedule: Q01DX011 (ip), vehicle: carboxymethylcellulose (CMC)) 97 % of control; (dose: 29.0 mg/kg/injection, schedule: Q01DX011 (ip), vehicle: carboxymethylcellulose (CMC)) 93 % of control; (dose: 58.0 mg/kg/injection, schedule: Q01DX011 (ip), vehicle: carboxymethylcellulose (CMC)) 82 % of control; (dose: 116.0 mg/kg/injection, schedule: Q01DX011 (ip), vehicle: carboxymethylcellulose (CMC)) 66 % of control.
In the case of `OCCc1ccccc1`, the T/C runs as follows: (dose: 62.0 mg/kg/injection, schedule: Q01DX011 (ip), vehicle: carboxymethylcellulose (CMC)) 83 % of control; under setting [2], 63 % of control; under setting [6], 57 % of control; under setting [3], 51 % of control.
